In patent US12048783B2, “2,4-disubstituted pyridines as malodor counteracting ingredients” (FIRMENICH SA, priority 2017, dated 2024) one finds EC50 data, which are given here for one compound.

The test concerns the target T1, OR4S2 (Homo sapiens, UniProt Q8NH73).
T1 construct: expressed in transfected cells
T1 sequence (Q8NH73 1-311): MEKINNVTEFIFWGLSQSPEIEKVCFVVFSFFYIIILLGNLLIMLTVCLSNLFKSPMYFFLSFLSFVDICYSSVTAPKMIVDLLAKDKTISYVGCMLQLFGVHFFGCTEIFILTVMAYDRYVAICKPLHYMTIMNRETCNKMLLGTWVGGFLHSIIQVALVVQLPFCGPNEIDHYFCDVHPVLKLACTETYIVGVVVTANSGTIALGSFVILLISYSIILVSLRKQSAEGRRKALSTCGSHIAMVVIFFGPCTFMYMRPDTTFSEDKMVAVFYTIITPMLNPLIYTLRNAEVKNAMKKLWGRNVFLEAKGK
Put plainly: Inhibition of malodor compound induced olfactory receptor activity in stable cell lines. It is filed as cell-based. Conditions: inhibition of OR4S2 activity in presence of a single activating concentration of DMTS.

pEC50: −log10 of the molar value.

Broadly, the pEC50 is −log10 of the EC50, conventionally taken in molar units. Take `CCCCCc1cc(C)ccn1`: the pEC50 is 4.04.
